Broadly, the pIC50 is the IC50 on a negative log10 scale, so that one unit is a factor of ten. The term IC50 denotes the concentration at which inhibition is half-maximal. By inhibition is commonly meant the percentage by which the read-out fell short of the control.

SMILES strings stand for the structures. pIC50: −log10 of the molar value.

In series [1] the target is T1, Vascular endothelial growth factor receptor 2 (Homo sapiens, UniProt P35968). Description: Inhibition of VEGFR2 in human MCF7 cells by horseradish peroxidase-coupled TMB substrate based ELISA. In kind it is cell-based. A general note: In an ELISA, binding on a coated surface is turned into a signal by an enzyme label.
The subject of series [2] is MCF7. Description: Cytotoxicity against human MCF7 cells assessed as reduction in cell viability incubated for 48 hrs by SRB assay. In kind it is functional, cell-based. Conditions: MCF7, 48 h.
Series [3] concerns HCT-116. Description: Antiproliferative activity against human HCT-116 cells assessed as cell growth inhibition measured for 24 hrs by MTT assay. In kind it is functional, cell-based. Conditions: HCT-116, 24 h. On the technique in general: Tetrazolium assays rely on reduction of a dye to a coloured formazan, in cell work by metabolically active cells.
In series [4] the test system is MCF7. The series can be described thus: Antiproliferative activity against human MCF7 cells assessed as cell growth inhibition measured for 24 hrs by MTT assay. In kind it is functional, cell-based. Conditions: MCF7, 24 h.
For series [5], the system named is HepG2. The series can be described thus: Antiproliferative activity against human HepG2 cells assessed as cell growth inhibition measured for 24 hrs by MTT assay. In kind it is functional, cell-based. Conditions: HepG2, 24 h.
The test system of the next series is UO-31. The series can be described thus: Antiproliferative activity against human UO-31 cells assessed as reduction in cell viability incubated for 48 hrs by MTT assay. In kind it is functional, cell-based. Conditions: UO-31, 48 h.
For series [6], the system named is HepG2. The series can be described thus: cells. The conditions noted are these: Homo sapiens, HepG2, 72 h.
Description: Cytotoxicity against human HepG2 cells assessed as reduction in cell viability incubated for 72 hrs by MTT assay
In series [7] the test system is HCT-116. The series can be described thus: cells. The conditions noted are these: Homo sapiens, HCT-116, 72 h.
Description: Cytotoxicity against human HCT-116 cells assessed as reduction in cell viability incubated for 72 hrs by MTT assay
In series [8] the test system is MCF7. Description: cells. Conditions: Homo sapiens, MCF7, 72 h.
Description: Cytotoxicity against human MCF7 cells assessed as reduction in cell viability incubated for 72 hrs by MTT assay
Series [9] in a line: Cytotoxicity against human HUVEC cells assessed as reduction in cell viability incubated for 72 hrs by CCK-8 assay. In kind it is toxicity, cell-based.
Series [10] concerns the target T1, Vascular endothelial growth factor receptor 2. Description: Inhibition of VEGFR-2 (unknown origin) at 1 uM by ELISA method relative to control.
A short description of series [11]: Cytotoxicity against human MDA-MB-435 cells assessed as reduction in cell viability incubated for 72 hrs by CCK-8 assay. In kind it is toxicity, cell-based.
The next series deals with HT-29. Description: Cytotoxicity against human HT-29 cells assessed as reduction in cell viability incubated for 72 hrs by CCK-8 assay. Conditions: HT-29, 72 h. In kind it is functional, cell-based.
The next series deals with HeLa. The series can be described thus: Cytotoxicity against human HeLa cells assessed as reduction in cell viability incubated for 72 hrs by CCK-8 assay. In kind it is functional, cell-based.
A short description of series [12]: Cytotoxicity against human A549 cells assessed as reduction in cell viability incubated for 72 hrs by CCK-8 assay. In kind it is toxicity, cell-based.
The test system of the next series is NCI-H522. Description: Inhibition of cell proliferation in human NCI-H522 cells at 0.3 uM relative to control. In kind it is functional.
The next series deals with SK-MEL-2. The series can be described thus: Inhibition of cell proliferation in human SK-MEL-2 cells at 0.3 uM relative to control. In kind it is functional.
Series [13] addresses T1, Vascular endothelial growth factor receptor 2. The series can be described thus: Inhibition of GST-tagged human recombinant VEGFR2 at 10 uM using Poly(4:1 Glu, Tyr) as substrate by Kinase-Glo Max reagent based luminescence analysis relative to control. A general note: Kinase-Glo measures the ATP left after a reaction by luminescence.
The subject of series [14] is A549. The series can be described thus: Cytotoxicity against human A549 cells assessed as reduction in cell growth incubated for 24 hrs by MTT assay. Conditions: A549, 24 h. In kind it is functional, cell-based.
The test system of the next series is NCI-H460. Description: Cytotoxicity against human NCI-H460 cells assessed as reduction in cell growth incubated for 24 hrs by MTT assay. In kind it is functional, cell-based. The conditions noted are these: NCI-H460, 24 h.
In series [15] the test system is MCF7. Description: Cytotoxicity against human MCF7 cells assessed as reduction in cell growth by MTT assay. In kind it is functional, cell-based.
The subject of series [16] is HepG2. The series can be described thus: Cytotoxicity against human HepG2 cells assessed as reduction in cell growth by MTT assay. In kind it is functional, cell-based.
The test system of series [17] is HCT-116. Description: Cytotoxicity against human HCT-116 cells assessed as reduction in cell growth by MTT assay. In kind it is functional, cell-based.
Series [18] has as its system A549. The series can be described thus: Antiproliferative activity against human A549 cells assessed as reduction in cell viability incubated for 48 hrs by MTT assay. In kind it is functional, cell-based. The conditions noted are these: A549, 48 h.
In series [19] the test system is HCT-116. Description: Antiproliferative activity against human HCT-116 cells assessed as reduction in cell viability incubated for 48 hrs by MTT assay. In kind it is functional, cell-based. The conditions noted are these: HCT-116, 48 h.
Series [20] concerns the target T1, Vascular endothelial growth factor receptor 2. Description: Inhibition of VEGFR-2 in human MCF7 cells by ELISA method. In kind it is cell-based.
The subject of series [21] is MCF7. The series can be described thus: Cytotoxicity against human MCF7 cells assessed as reduction in cell viability incubated for 48 hrs by MTT assay. In kind it is functional, cell-based. The conditions noted are these: MCF7, 48 h.
Series [22] addresses T1, Vascular endothelial growth factor receptor 2. Description: Inhibition of human VEGFR-2 by ELISA method.
The subject of series [23] is MCF7. The series can be described thus: Growth inhibition of human MCF7 cells. In kind it is functional.

T1 sequence (P35968 whole entry): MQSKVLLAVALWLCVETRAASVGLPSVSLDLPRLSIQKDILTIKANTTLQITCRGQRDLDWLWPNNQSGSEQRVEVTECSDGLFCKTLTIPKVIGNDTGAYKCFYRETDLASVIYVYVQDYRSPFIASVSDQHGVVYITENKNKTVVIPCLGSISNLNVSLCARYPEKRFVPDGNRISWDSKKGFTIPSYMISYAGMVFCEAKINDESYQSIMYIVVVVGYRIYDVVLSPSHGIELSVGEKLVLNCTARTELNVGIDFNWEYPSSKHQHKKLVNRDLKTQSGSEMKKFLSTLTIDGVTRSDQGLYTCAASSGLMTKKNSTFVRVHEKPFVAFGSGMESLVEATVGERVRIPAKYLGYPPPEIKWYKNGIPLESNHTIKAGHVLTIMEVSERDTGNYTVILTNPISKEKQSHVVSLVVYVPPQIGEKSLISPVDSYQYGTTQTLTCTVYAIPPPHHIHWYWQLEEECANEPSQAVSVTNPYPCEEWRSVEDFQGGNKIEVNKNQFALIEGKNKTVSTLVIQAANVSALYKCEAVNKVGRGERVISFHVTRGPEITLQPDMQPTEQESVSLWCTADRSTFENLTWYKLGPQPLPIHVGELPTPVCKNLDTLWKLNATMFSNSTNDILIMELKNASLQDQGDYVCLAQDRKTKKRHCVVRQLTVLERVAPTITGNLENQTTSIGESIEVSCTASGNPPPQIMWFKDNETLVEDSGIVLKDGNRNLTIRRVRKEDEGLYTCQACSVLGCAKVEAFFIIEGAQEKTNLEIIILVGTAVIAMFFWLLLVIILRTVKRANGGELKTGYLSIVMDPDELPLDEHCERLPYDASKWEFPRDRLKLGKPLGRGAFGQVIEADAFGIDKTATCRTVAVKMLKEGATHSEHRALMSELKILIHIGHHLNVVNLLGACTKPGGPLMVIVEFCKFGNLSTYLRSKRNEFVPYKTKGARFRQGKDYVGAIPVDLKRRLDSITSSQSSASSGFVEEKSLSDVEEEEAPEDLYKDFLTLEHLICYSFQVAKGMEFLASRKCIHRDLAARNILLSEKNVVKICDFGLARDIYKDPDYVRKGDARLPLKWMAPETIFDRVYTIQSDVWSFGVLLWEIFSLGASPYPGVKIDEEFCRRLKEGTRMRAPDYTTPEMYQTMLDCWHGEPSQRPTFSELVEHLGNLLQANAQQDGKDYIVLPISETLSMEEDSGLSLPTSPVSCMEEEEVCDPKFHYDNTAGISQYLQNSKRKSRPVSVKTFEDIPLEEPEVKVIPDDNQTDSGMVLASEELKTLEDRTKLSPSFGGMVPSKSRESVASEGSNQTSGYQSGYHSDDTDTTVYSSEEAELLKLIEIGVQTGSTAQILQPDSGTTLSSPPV

For the compound `COc1cc(-c2nc3ccccc3s2)ccc1OCC(=O)N/N=C/c1ccc(O)cc1`, the pIC50 was 6.72 in [1] and 5.11 in the series with MCF7 [2].
As for `O=C(CSc1nc2ccccc2o1)Nc1ccc(C(=O)Nc2ccc([N+](=O)[O-])cc2)cc1`, the figures for the pIC50 in the series on HCT-116 [3], in the series with MCF7 [4] and in the series with HepG2 [5] were 5.55, 5.46 and 5.61, respectively.
In the case of `COc1ccccc1NC(=O)c1ccc(NC(=O)CSc2nc3ccccc3o2)cc1`, the pIC50 in the series on MCF7 [4] and with HepG2 [5] was 5.40 in each case.
`O=C(CCc1nnc2sc(COc3ccccc3)nn12)c1nc2cc([N+](=O)[O-])ccc2[nH]1`: the pIC50 in the series with UO-31 is 4.48.
For `Cc1ccc2oc(SCC(=O)Nc3ccc(C(=O)Nc4cccc(Cl)c4)cc3)nc2c1`, the pIC50 is 4.82 in the series with MCF7 [4] and 4.98 in the series on HepG2 [5].
As for `CCNC(=S)NS(=O)(=O)c1ccc(NC(=O)CCSc2nc3cc(C)ccc3o2)cc1`, the figures for the pIC50 in the series on HepG2 [6], with HCT-116 [7] and in the series on MCF7 [8] were 5.00, 4.90 and 4.80, respectively.
For `O=C(OCc1nc2ccccc2[nH]1)c1c[nH]c2ccccc12`, the figures for the IC50 at 72 h in series [9], in series [11] and in series [12] were 560 nM, 370 nM and 540 nM, respectively. The compound also came in with an inhibition in series [10] of 34%. For the same compound, the pIC50 in the series on HT-29 and with HeLa was 6.72 in each case.
`O=C(CCSc1nc2ccccc2o1)Nc1ccc(S(=O)(=O)NC(=O)Nc2ccccc2)cc1`: the values for the pIC50 in the series on HepG2 [6], in the series with HCT-116 [7] and in the series with MCF7 [8] were 5.06, 5.02 and 5.00, respectively.
Consider `O=C(CSc1nc2ccccc2o1)Nc1ccc(C(=O)NC2CCCCC2)cc1`, for which the results for the pIC50 in the series with HCT-116 [3] and in the series on MCF7 [4] were 5.11 and 5.14, respectively.
As for `Cn1c(COC(=O)c2c[nH]c3ccccc23)nc2ccccc21`, the IC50 at 72 h came to 260 nM in series [9], 540 nM in series [11] and 210 nM in [12]. In series [10], this compound showed an inhibition of 33.9%. The pIC50 in the series on HT-29 was 6.44; with HeLa it was 6.57.
As for `COc1ccc2[nH]cc(C(=O)OCc3nc4ccccc4n3C)c2c1`, the IC50 at 72 h in [9] amounted to 320 nM; in [11], 450 nM; in series [12], 300 nM. In addition, the inhibition in series [10] was found to be 36.7%. The pIC50 with HT-29 and with HeLa was 6.59 in each case.
As to `COc1cc(C2OC(CCC(=O)c3nc4cc([N+](=O)[O-])ccc4[nH]3)=NN2C(C)=O)cc(OC)c1OC` (stereo not given), the inhibition at 0.3 µM stood at 48.7% with NCI-H522 and 42.6% with SK-MEL-2. In addition, the pIC50 in the series with UO-31 is 4.72.
For the compound `Clc1ccc(/C=N/N=C(/c2ccccc2)c2ccc3nc(-c4ccc(Cl)cc4)[nH]c3c2)cc1`, the inhibition in series [13] amounted to 89.9%. Further, the pIC50 with A549 [14] was 5.73; in the series on NCI-H460, 6.07.
For the compound `Cc1c(C(=O)NNC(=S)Nc2ccc(Cl)cc2)nnn1Cc1nc2ccccc2[nH]1`, the pIC50 in the series with MCF7 [15] was 5.17; with HepG2 [16], 5.11; in the series with HCT-116 [17], 5.08.
`O=C(CCc1nnc2sc(CCc3ccccc3)nn12)c1nc2cc([N+](=O)[O-])ccc2[nH]1`: the figures for the pIC50 with A549 [18] and in the series with HCT-116 [19] were 4.96 and 5.66, respectively.
Turning to `O=C(CCSc1nc2ccccc2o1)Nc1nnc(-c2ccccc2)s1`, the pIC50 with HepG2 [6] was 5.00; with HCT-116 [7], 5.16; in the series on MCF7 [8], 5.10.
As to `Cn1c(COC(=O)c2c[nH]c3ccc(Br)cc23)nc2ccccc21`, the IC50 at 72 h in [9] is 320 nM; in series [11] it was 270 nM; in [12], 450 nM. Moreover, the inhibition in series [10] is 28.8%. In addition, the pIC50 in the series with HT-29 and with HeLa was 6.48 in each case.
As for `O=C(Nc1ccc([N+](=O)[O-])cc1)Nc1cccc(-c2nc3ccccc3[nH]2)c1`, the pIC50 in [20] is 8.17; in the series with MCF7 [21], 5.14; in [22], 8.17.
`Cc1ccc2[nH]c(-c3ccc(C(=O)N/N=C/c4ccc(Cl)cc4Cl)cc3)nc2c1` returned a GI in the series on MCF7 [23] of 30.51 µM.
